According to patent publication US9669034B2, “4-aryl-N-phenyl-1,3,5-triazin-2-amines containing a sulfoximine group” (BAYER INTELLECTUAL PROPERTY GMBH, priority 2011, dated 2017):

Key:
CDK2/CycE = CDK2/CycE (Homo sapiens (Human), UniProt P24941); assay: CDK2/CycE kinase assay (TR-FRET); format: biochemical; details: Method 2
Method in brief: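 Enzyme was GST-tagged human CDK2 with GST-tagged human CycE, expressed in Sf9 insect cells and glutathione-affinity purified. The kinase reaction used a biotinylated peptide substrate, with inhibition measured by TR-FRET.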

[1] = tested on: DU145, hormone-independent human prostate carcinoma cells; assay: Proliferation assay (crystal violet), DU145; format: cell-based; details: Homo sapiens, DU-145, DU145 cells, Method 3; read-out: Inhibition of DU145 cell proliferation, IC50
Protocol: (§1) Cultivated tumour cells (NCI-H460, human non-small cell lung carcinoma cells, ATCC HTB-177; DU145, hormone-independent human prostate carcinoma cells, ATCC HTB-81; HeLa-MaTu, human cervical carcinoma cells, EPO-GmbH, Berlin; HeLa-MaTu-ADR, multidrug-resistant human cervical carcinoma cells, EPO-GmbH, Berlin; HeLa human cervical tumour cells, ATCC CCL-2; Caco-2 human colorectal carcinoma, ATCC HTB-37; B16F10 mouse melanoma cells, ATCC CRL-6475) were plated at a density of 5000 cells/well (DU145, HeLa-MaTu-ADR), 3000 cells/well (NCI-H460, HeLa-MaTu, HeLa), 1500 cells/well (Caco-2), or 1000 cells/well (B16 F10) in a 96-well multititer plate in 200 μL of their respective growth medium supplemented 10% fetal calf serum. After 24 hours, the cells of one plate (zero-point plate) were stained with crystal violet (see below), while the medium of the other plates was replaced by fresh culture medium (200 μL), to which the test substances were added in various concentrations (0 M, as well as in the range of […]; the final concentration of the solvent dimethylsulfoxide was 0.5%). The cells were incubated for 4 days in the presence of test substances. Cell proliferation was determined by staining the cells with crystal violet: the cells were fixed by adding 20 μL/measuring point of an 11% glutaric aldehyde solution for 15 minutes at room temperature. After three washing cycles of the fixed cells with water, the plates were dried at room temperature. The cells were stained by adding 100 μL/measuring point of a 0.1% crystal violet solution (pH 3.0). After three washing cycles of the stained cells with water, the plates were dried at room temperature. The dye was dissolved by adding 100 μL/measuring point of a 10% acetic acid solution. The absorbance was determined by photometry at a wavelength of 595 nm. The change of cell number, in percent, was calculated by normalization of the measured values to the absorbance values of the zero-point plate (=0%) and the absorbance of the untreated (0 M) cells (=100%). The IC50 values were determined by means of a 4 parameter fit.

[2] = tested on: HeLa human cervical tumour cells; assay: Proliferation assay (crystal violet), HeLa; format: cell-based; details: Homo sapiens, HeLa, Method 3, read-out: Inhibition of HeLa cell proliferation, IC50
Protocol: as §1

[3] = tested on: HeLa-MaTu-ADR, multidrug-resistant human cervical carcinoma cells; assay: Proliferation assay (crystal violet), HeLa-MaTu-ADR; format: cell-based; details: Homo sapiens, HeLa, Method 3, read-out: Inhibition of HeLa/MaTu/ADR cell proliferation, IC50
Protocol: as §1

[4] = tested on: NCI-H460, human non-small cell lung carcinoma cells; assay: Proliferation assay (crystal violet), NCI-H460; format: cell-based; details: Homo sapiens, NCI-H460, NCI-H460 cells, Method 3; read-out: Inhibition of NCI-H460 cell proliferation, IC50
Protocol: as §1

[5] = tested on: B16F10 mouse melanoma cells; assay: Proliferation assay (crystal violet), B16F10; format: cell-based; details: Mus musculus, B16-F10, B16F10 cells, Method 3; read-out: Inhibition of B16F10 cell proliferation, IC50
Protocol: as §1

CDK9/CycT1 = CDK9/CycT1 (Homo sapiens (Human), UniProt P50750); assay: CDK9/CycT1 kinase assay (TR-FRET); format: biochemical; details: Method 1
Sequence of CDK9/CycT1 (P50750 whole entry): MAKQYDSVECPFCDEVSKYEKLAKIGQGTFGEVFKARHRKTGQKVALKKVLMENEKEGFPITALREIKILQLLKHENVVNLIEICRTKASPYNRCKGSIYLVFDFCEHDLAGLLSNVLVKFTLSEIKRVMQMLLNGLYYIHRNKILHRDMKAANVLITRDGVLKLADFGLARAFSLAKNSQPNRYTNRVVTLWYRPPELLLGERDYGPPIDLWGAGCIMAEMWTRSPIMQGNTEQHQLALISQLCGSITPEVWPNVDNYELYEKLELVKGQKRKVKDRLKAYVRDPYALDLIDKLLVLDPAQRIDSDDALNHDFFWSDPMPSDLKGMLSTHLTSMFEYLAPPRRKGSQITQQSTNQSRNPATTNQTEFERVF
Sequence of CDK9/CycT1 (O60563 whole entry partner): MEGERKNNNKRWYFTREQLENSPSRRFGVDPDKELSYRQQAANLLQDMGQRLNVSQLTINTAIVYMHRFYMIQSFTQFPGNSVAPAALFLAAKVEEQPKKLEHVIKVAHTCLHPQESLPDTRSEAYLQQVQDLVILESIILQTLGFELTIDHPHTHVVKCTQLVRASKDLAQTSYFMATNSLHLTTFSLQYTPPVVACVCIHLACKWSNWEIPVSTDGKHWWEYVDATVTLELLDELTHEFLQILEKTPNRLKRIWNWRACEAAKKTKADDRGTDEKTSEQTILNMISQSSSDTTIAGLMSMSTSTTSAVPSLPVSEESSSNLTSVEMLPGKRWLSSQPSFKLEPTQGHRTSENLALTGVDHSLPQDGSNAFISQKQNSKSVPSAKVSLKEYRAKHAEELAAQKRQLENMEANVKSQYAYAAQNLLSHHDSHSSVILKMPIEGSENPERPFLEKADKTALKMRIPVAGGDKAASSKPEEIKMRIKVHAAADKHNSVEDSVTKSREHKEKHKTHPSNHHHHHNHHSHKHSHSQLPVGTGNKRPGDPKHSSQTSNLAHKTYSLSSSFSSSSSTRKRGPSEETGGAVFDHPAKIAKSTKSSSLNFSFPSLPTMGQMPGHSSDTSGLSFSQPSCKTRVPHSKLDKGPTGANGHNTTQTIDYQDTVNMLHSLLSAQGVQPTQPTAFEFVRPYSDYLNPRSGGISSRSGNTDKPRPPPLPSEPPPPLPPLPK
Method in brief: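 Recombinant full-length His-tagged human CDK9/CycT1, insect-cell expressed and Ni-NTA purified. Substrate is a biotinylated peptide (biotin-Ttds-linked). Kinase inhibition is read out by TR-FRET.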

[6] = tested on: Caco-2 human colorectal carcinoma; assay: Proliferation assay (crystal violet), Caco-2; format: cell-based; details: Homo sapiens, Caco-2, Caco-2 cells, Method 3; read-out: Inhibition of Caco-2 cell proliferation, IC50
Protocol: as §1

IC50 (CDK2/CycE) [nM] | IC50 [1] [nM] | IC50 [2] [nM] | IC50 [3] [nM] | IC50 [4] [nM] | IC50 [5] [nM] | IC50 (CDK9/CycT1) [nM] | IC50 [6] [nM] | Compound
410 | 370 | 370 | 780 | 350 | 470 | 6 | 860 | CS(=N)(=O)Cc1cccc(Nc2ncnc(-c3ccc(F)cc3OCc3ccc(F)cc3)n2)c1 (racemic) [Example 56, (rac)-4-{4-Fluoro-2-[(4-fluorobenzyl)oxy]phenyl}-N-{3-[(S-methylsulfonimidoyl)methyl]phenyl}-1,3,5-triazin-2-amine]
250 | 290 | 400 | 280 | 360 | 320 | 15 | 350 | COc1cc(F)ccc1-c1ncnc(Nc2cc(Cl)cc(CS(C)(=N)=O)c2)n1 (racemic) [Example 64, (rac)-N-{3-Chloro-5-[(S-methylsulfonimidoyl)methyl]phenyl}-4-(4-fluoro-2-methoxyphenyl)-1,3,5-triazin-2-amine]
360 | 130 | 180 | 190 | 180 | 150 | 7 | 180 | CS(=N)(=O)Cc1cccc(Nc2ncnc(-c3ccc(F)cc3OCc3ccnc(F)c3)n2)c1 (racemic) [Example 82, (rac)-4-{4-Fluoro-2-[(2-fluoropyridin-4-yl)methoxy]phenyl}-N-{3-[(S-methylsulfonimidoyl)methyl]phenyl}-1,3,5-triazin-2-amine]
380 | 190 | 330 | 560 | 230 | 280 | 9 | 51 | C=CCOc1cc(F)ccc1-c1ncnc(Nc2cccc(CS(C)(=N)=O)c2)n1 (racemic) [Example 85, (rac)-4-[4-Fluoro-2-(prop-2-en-1-yloxy)phenyl]-N-{3-[(S-methylsulfonimidoyl)methyl]phenyl}-1,3,5-triazin-2-amine]
260 | 110 | 170 | 100 | 110 | 100 | 2 | 80 | CS(=N)(=O)Cc1cccc(Nc2ncnc(-c3ccc(F)cc3OCc3cccc(F)c3)n2)c1 (racemic) [Example 90, (rac)-4-{4-Fluoro-2-[(3-fluorobenzyl)oxy]phenyl}-N-{3-[(S-methylsulfonimidoyl)methyl]phenyl}-1,3,5-triazin-2-amine]
230 | 140 | 110 | 190 | 200 | 180 | 3 | 220 | CS(=N)(=O)Cc1cccc(Nc2ncnc(-c3ccc(F)cc3OCc3cc(F)cc(Cl)c3)n2)c1 (racemic) [Example 94, (rac)-4-{2-[(3-Chloro-5-fluorobenzyl)oxy]-4-fluorophenyl}-N-{3-[(S-methylsulfonimidoyl)methyl]phenyl}-1,3,5-triazin-2-amine]
180 | 120 | 140 | 260 | 120 | 130 | 3 | 150 | CS(=N)(=O)Cc1cccc(Nc2ncnc(-c3ccc(F)cc3OCc3cccc(C#N)c3)n2)c1 (racemic) [Example 98, (rac)-3-({5-Fluoro-2-[4-({3-[(S-methylsulfonimidoyl)methyl]phenyl}amino)-1,3,5-triazin-2-yl]phenoxy}methyl)benzonitrile]

The remaining lines, values behind:

Compound | IC50 (CDK2/CycE) [nM] | IC50 [1] [nM] | IC50 [2] [nM] | IC50 [3] [nM] | IC50 [4] [nM] | IC50 [5] [nM] | IC50 (CDK9/CycT1) [nM] | IC50 [6] [nM]
COc1cc(F)ccc1-c1ncnc(Nc2cccc(CS(C)(=O)=NC#N)c2)n1 (racemic) [Example 48, (rac)-[(3-{[4-(4-fluoro-2-methoxyphenyl)-1,3,5-triazin-2-yl]amino}benzyl)(methyl)oxido-λ^6-sulfanylidene]cyanamide] | 630 | 280 | 330 | 400 | 410 | 320 | 13 | 420
CS(=N)(=O)Cc1cccc(Nc2ncnc(-c3ccc(F)cc3OCc3ccncc3)n2)c1 (racemic) [Example 68, (rac)-4-[4-Fluoro-2-(pyridin-4-ylmethoxy)phenyl]-N-{3-[(S-methylsulfonimidoyl)methyl]phenyl}-1,3,5-triazin-2-amine] | 1500 | 460 | 410 | 3000 | 1100 | 740 | 14 | 1300
COc1cc(F)ccc1-c1ncnc(Nc2cc(F)cc(CS(C)(=O)=NC#N)c2)n1 (racemic) [Example 70, (rac)-[(3-Fluoro-5-{[4-(4-fluoro-2-methoxyphenyl)-1,3,5-triazin-2-yl]amino}benzyl)(methyl)oxido-λ^6-sulfanylidene]cyanamide] | 180 | 79 | 150 | 120 | 230 | 130 | 6 | 170
CS(=N)(=O)Cc1cccc(Nc2ncnc(-c3ccc(F)cc3OCc3ccc(Cl)cc3)n2)c1 (racemic) [Example 87, (rac)-4-{2-[(4-Chlorobenzyl)oxy]-4-fluorophenyl}-N-{3-[(S-methylsulfonimidoyl)methyl]phenyl}-1,3,5-triazin-2-amine] | 680 | 610 | 560 | 450 | 570 | 590 | 3 | 800
CS(=N)(=O)Cc1cccc(Nc2ncnc(-c3ccc(F)cc3OCc3cc(F)cc(C(F)(F)F)c3)n2)c1 (racemic) [Example 89, (rac)-4-(4-Fluoro-2-{[3-fluoro-5-(trifluoromethyl)benzyl]oxy}phenyl)-N-{3-[(S-methylsulfonimidoyl)methyl]phenyl}-1,3,5-triazin-2-amine] | 280 | 420 | 470 | 450 | 370 | 470 | 4 | 520
CS(=N)(=O)Cc1cccc(Nc2ncnc(-c3ccc(F)cc3OCc3cccc(Cl)c3)n2)c1 (racemic) [Example 92, (rac)-4-{2-[(3-Chlorobenzyl)oxy]-4-fluorophenyl}-N-{3-[(S-methylsulfonimidoyl)methyl]phenyl}-1,3,5-triazin-2-amine] | 250 | 380 | 470 | 360 | 170 | 390 | 4 | 430
C=C(C)COc1cc(F)ccc1-c1ncnc(Nc2cccc(CS(C)(=N)=O)c2)n1 (racemic) [Example 99, (rac)-4-{4-Fluoro-2-[(2-methylprop-2-en-1-yl)oxy]phenyl}-N-{3-[(S-methylsulfonimidoyl)methyl]phenyl}-1,3,5-triazin-2-amine] | 250 | 120 | 120 | 180 | 150 | 200 | 2 | 230
